Legend:
[1] = Entrapment efficiency of LNP preparation encapsulating EGFP mRNA; assay type: physicochemical; settings: LNP ionizable lipid/DOPE/cholesterol/DSPE-PEG2000 35/16/46.5/2.5 mol% encapsulating EGFP mRNA
Description: The ionizable lipid compound of Example 1 was dissolved in ethanol with DOPE, cholesterol and DSPE-PEG2000 (all purchased from AVT (Shanghai) Pharmaceutical Technology Co., Ltd.) at a molar ratio of 35:16:46.5:2.5 to prepare ethanol lipid solution, and enhanced green fluorescent protein (EGFP) mRNAs (Shanghai Maximna Pharmaceutical Engineering Co., Ltd., JN-4201) were diluted in 20 mM citrate buffer (pH=6.1) to obtain mRNA aqueous solution. Ethanol lipid solution and mRNA aqueous solution were mixed at a volume ratio of 1:3 by using a microfluidic device (Micro&Nano (Shanghai) Instrument Technology Co., Ltd., model: INano™ML), LNPs were prepared with a weight ratio of approximately 10:1 between total lipids and mRNAs. The medium was replaced by ultrafiltration, ethanol was removed and volumed with DPBS. Finally, the lipid nanoparticles were filtered through a 0.2 μm sterile filter to obtain a LNP formulation encapsulating eGFP mRNA using ionizable lipid/DOPE/cholesterol/DSPE-PEG2000 (35/16/46.5/2.5 mol %), the concentration of mRNAs being 0.002 mg/mL-0.5 mg/mL. […]

PBMC cells = test: In vitro transfection of PBMC cells with EGFP mRNA LNP preparation (flow cytometry); assay type: cell-based; parameters: Cell Viability: concentration or dose not given beside the values; settings: PBMCs; for Cell Viability / Positive Rate (EGFP): LNP preparation added with ApoE4; for Fluorescence Intensity: with ApoE4, EGFP mRNA expression level normalized based on the sample with the highest fluorescence intensity
Description: The description is based on peripheral blood mononuclear cells PBMC (Shanghai Oribiotech Co., Ltd.), human peripheral blood leukemia T cell Jurkat (ATCC), tumor infiltrating lymphocyte TIL (isolated from resected tumor tissue of a liver cancer patient, the preparation method refers to CN114763530A), mouse bone marrow-derived dendritic cells DC2.4 (Cell Bank of the Chinese Academy of Sciences), and Chinese hamster ovary cells CHO (ATCC) were used as verified cell lines for liposome transfection. PBMC, Jurkat, and TIL cells grew in suspension, while DC2.4 and CHO cells grew by adherent culture. All the operation steps of cell culture must strictly abide by the prescribed procedures, and sterile reagents is used to perform aseptic operations under a sterile workbench. The main steps are as follows: • 1) Cell recovery: the preserved cell cryopreservation solution was taken out of the −80° C. refrigerator, and was immediately put in a 37° C. water bath for rapid and continuous shaking, and was completely melted within one minute. Fresh medium was added to the 15 mL centrifuge tube in advance, and the cell solution was added to the centrifuge tube in a biological safety cabinet. A centrifuge tube of the same quality was taken and placed symmetrically in a centrifuge, centrifuged at a low speed at 1200 rpm for 5 min. After centrifugation, the supernatant was removed, and an appropriate amount of medium was slowly added along the tube wall. After the cells were evenly dispersed by blowing gently, the cell suspension was pipette and added to the culture bottle prepared in advance. The state and distribution of the cells in the early stage of recovery were observed under a microscope. The culture bottle was placed in a 5% CO2 incubator and incubated at 37° C., and the recovery time was recorded. • 2) Cell subculture: Under the microscope, if the cell density in the field of view reaches 80%-90%, the cells can be subcultured. Adherent cells need to be digested with trypsin. In order to avoid the residual serum in the culture medium to reduce the activity of trypsin, DPBS solution was added to wash once after removing the original culture medium. After remove the DPBS solution, trypsin was added to degrade the protein at the junction between cells. This separates the cells for further culture. The cells were gently shaked evenly and put into the incubator for digestion for 2 min. Immediately after the digestion was completed, an appropriate amount of medium was added to the original petri dish to terminate the digestion. Finally, the cells were carefully blowed off using a pipette and blowed until they are evenly dispersed, and then inoculated and subcultured at a certain ratio according to the experimental requirements.
• 1) Coating antibodies: 6-well plates were pre-coated, CD3 and CD28 antibodies were taken out from the −20° C. refrigerator, and melted for later use. The above two antibodies were added into the DPBS solution at a concentration of 5 µg/mL, mixed well, added into a six-well plate at 1 mL/well, put in a 37° C. incubator, and waited 4 hours for later use. • 2) PBMC recovery: the frozen PBMC cells were taken out from the −80° C. refrigerator, put in a 37° C. water bath to quickly thaw the cells, added to the preheated medium after thawing, centrifuged at 1200 rpm for 5 min, the supernatant was discarded, and an appropriate amount of AIMN-V medium with 500 U/ml IL-2 was added to resuspend PBMC. • 3) the DPBS coated with the antibody was removed with a pipette, the cell suspension was transferred to a six-well plate pre-coated with the antibody at 4 mL per well, placed in a 5% CO2 incubator at 37° C. for 3-5 days for activation and culture. • 4) According to the experimental arrangement, PBMC cells were plated on a 24-well plate 30 minutes in advance on the day of cell transfection. […]

CCCCCCCCCCC(O)CN(CCN1CCN(CCN(CCN(CC(O)CCCCCCCCCC)CC(O)CCCCCCCCCC)CCN(CC(O)CCCCCCCCCC)CC(O)CCCCCCCCCC)CC1)CC(O)CCCCCCCCCC (centres unmarked) [A-C12]
Entrapment Efficiency [1]: 89.80% | Cell Viability (PBMC cells): 89.70% | Positive Rate (EGFP) (PBMC cells): 73.30% | Fluorescence Intensity (PBMC cells): 0.72

CCCCCCCCCCCCC(O)CN(CCN1CCN(CCN(CCN(CC(O)CCCCCCCCCCCC)CC(O)CCCCCCCCCCCC)CCN(CC(O)CCCCCCCCCCCC)CC(O)CCCCCCCCCCCC)CC1)CC(O)CCCCCCCCCCCC (centres unmarked) [A-C14]
Entrapment Efficiency [1]: 80.31% | Cell Viability (PBMC cells): 91.20% | Positive Rate (EGFP) (PBMC cells): 72.30% | Fluorescence Intensity (PBMC cells): 0.76

CCCCCCCCCCCCCCC(O)CN(CCN1CCN(CCN(CCN(CC(O)CCCCCCCCCCCCCC)CC(O)CCCCCCCCCCCCCC)CCN(CC(O)CCCCCCCCCCCCCC)CC(O)CCCCCCCCCCCCCC)CC1)CC(O)CCCCCCCCCCCCCC (centres unmarked) [A-C16]
Entrapment Efficiency [1]: 90.30% | Cell Viability (PBMC cells): 90.00% | Positive Rate (EGFP) (PBMC cells): 76.30% | Fluorescence Intensity (PBMC cells): 0.81

CCCCCCCCCCCCCCCCC(O)CN(CCN1CCN(CCN(CCN(CC(O)CCCCCCCCCCCCCCCC)CC(O)CCCCCCCCCCCCCCCC)CCN(CC(O)CCCCCCCCCCCCCCCC)CC(O)CCCCCCCCCCCCCCCC)CC1)CC(O)CCCCCCCCCCCCCCCC (centres unmarked) [A-C18]
Entrapment Efficiency [1]: 90.56% | Cell Viability (PBMC cells): 85.00% | Positive Rate (EGFP) (PBMC cells): 81.90% | Fluorescence Intensity (PBMC cells): 0.87

CCCCCCCCCCC(O)CN(CCOCCN(CCOCCN(CC(O)CCCCCCCCCC)CC(O)CCCCCCCCCC)CCN1CCN(CCOCCN(CC(O)CCCCCCCCCC)CC(O)CCCCCCCCCC)CC1)CC(O)CCCCCCCCCC (centres unmarked) [B-C12, 19-(2-(4-(2-(2-(di(2-hydroxydodecyl)amino)ethoxy)ethyl)piperazin-1-yl)ethyl)-13, 15-bis(2-hydroxydodecyl)-16,22-dioxa-13,19,25-triazaheptakadecane-11,27-diol]
Entrapment Efficiency [1]: 89.93% | Cell Viability (PBMC cells): 85.00% | Positive Rate (EGFP) (PBMC cells): 83.00% | Fluorescence Intensity (PBMC cells): 0.81

CCCCCCCCCCC(O)CN(CCOCCOCCN(CCOCCOCCN(CC(O)CCCCCCCCCC)CC(O)CCCCCCCCCC)CCN1CCN(CCOCCOCCN(CC(O)CCCCCCCCCC)CC(O)CCCCCCCCCC)CC1)CC(O)CCCCCCCCCC (centres unmarked) [C-C12]
Entrapment Efficiency [1]: 95.24% | Cell Viability (PBMC cells): 89.30% | Positive Rate (EGFP) (PBMC cells): 56.50% | Fluorescence Intensity (PBMC cells): 0.41

CCCCCCCCCCC(O)CN(CCOCCOCCOCCN(CCOCCOCCOCCN(CC(O)CCCCCCCCCC)CC(O)CCCCCCCCCC)CCN1CCN(CCOCCOCCOCCN(CC(O)CCCCCCCCCC)CC(O)CCCCCCCCCC)CC1)CC(O)CCCCCCCCCC [D-C12]
Entrapment Efficiency [1]: 91.80% | Cell Viability (PBMC cells): 85.60% | Positive Rate (EGFP) (PBMC cells): 65.60% | Fluorescence Intensity (PBMC cells): 0.27

CCCCCCCCCCCCC(O)CN(CCOCCOCCOCCN(CCOCCOCCOCCN(CC(O)CCCCCCCCCCCC)CC(O)CCCCCCCCCCCC)CCN1CCN(CCOCCOCCOCCN(CC(O)CCCCCCCCCCCC)CC(O)CCCCCCCCCCCC)CC1)CC(O)CCCCCCCCCCCC [D-C14]
Entrapment Efficiency [1]: 92.36% | Cell Viability (PBMC cells): 88.70% | Positive Rate (EGFP) (PBMC cells): 96.70% | Fluorescence Intensity (PBMC cells): 0.25

CCCCCCCCCCCCCCC(O)CN(CCOCCOCCOCCN(CCOCCOCCOCCN(CC(O)CCCCCCCCCCCCCC)CC(O)CCCCCCCCCCCCCC)CCN1CCN(CCOCCOCCOCCN(CC(O)CCCCCCCCCCCCCC)CC(O)CCCCCCCCCCCCCC)CC1)CC(O)CCCCCCCCCCCCCC [D-C16]
Entrapment Efficiency [1]: 86.56% | Cell Viability (PBMC cells): 82.20% | Positive Rate (EGFP) (PBMC cells): 71.70% | Fluorescence Intensity (PBMC cells): 0.32

CCCCCCCCCCCCCCCCC(O)CC(CCOCCOCCOCCN(CCOCCOCCOCCN(CC(O)CCCCCCCCCCCCCCCC)CC(O)CCCCCCCCCCCCCCCC)CCN1CCN(CCOCCOCCOCCN(CC(O)CCCCCCCCCCCCCCCC)CC(O)CCCCCCCCCCCCCCCC)CC1)CC(O)CCCCCCCCCCCCCCCC [D-C18]
Entrapment Efficiency [1]: 88.54% | Cell Viability (PBMC cells): 83.30% | Positive Rate (EGFP) (PBMC cells): 64.40% | Fluorescence Intensity (PBMC cells): 0.41

CCCCCCCCCCCCC(O)CN(CCN(CCN1CCN(C)CC1)CCN(CC(O)CCCCCCCCCCCC)CC(O)CCCCCCCCCCCC)CC(O)CCCCCCCCCCCC (centres unmarked) [E-C14]
Entrapment Efficiency [1]: 85.62% | Cell Viability (PBMC cells): 86.50% | Positive Rate (EGFP) (PBMC cells): 64.60% | Fluorescence Intensity (PBMC cells): 0.12

CCCCCCCCCCCCC(O)CN(CCOCCN(CCOCCN(CC(O)CCCCCCCCCCCC)CC(O)CCCCCCCCCCCC)CCN1CCN(C)CC1)CC(O)CCCCCCCCCCCC (centres unmarked) [F-C14]
Entrapment Efficiency [1]: 95.21% | Cell Viability (PBMC cells): 83.20% | Positive Rate (EGFP) (PBMC cells): 63.70% | Fluorescence Intensity (PBMC cells): 0.16

CCCCCCCCCCCCC(O)CN(CCOCCOCCN(CCOCCOCCN(CC(O)CCCCCCCCCCCC)CC(O)CCCCCCCCCCCC)CCN1CCN(C)CC1)CC(O)CCCCCCCCCCCC (centres unmarked) [G-C14]
Entrapment Efficiency [1]: 84.02% | Cell Viability (PBMC cells): 79.40% | Positive Rate (EGFP) (PBMC cells): 63.40% | Fluorescence Intensity (PBMC cells): 0.1

CCCCCCCCCCCCC(O)CN(CCOCCOCCOCCN(CCOCCOCCOCCN(CC(O)CCCCCCCCCCCC)CC(O)CCCCCCCCCCCC)CCN1CCN(C)CC1)CC(O)CCCCCCCCCCCC (centres unmarked) [H-C14]
Entrapment Efficiency [1]: 91.67% | Cell Viability (PBMC cells): 81.70% | Positive Rate (EGFP) (PBMC cells): 62.10% | Fluorescence Intensity (PBMC cells): 0.07
